Measurements from US20260207654A1, “HEPARAN SULFATE AND ITS MIMETICS AS CHEMOKINE INHIBITORS” (INDIAN INSTITUTE OF SCIENCE EDUCATION AND RESEARCH, priority 2021, published 2026).

Assays:
Experiment in all cases: Chemokine glycan microarray binding assay
Details in all cases: maximum RFU set as 100% binding, average across 2 glycan concentrations and 3 chemokine dilutions (n=6)
[1] = molecular target: CCL13 (Homo sapiens, UniProt Q99616)
Method: (§1) Microarray Studies: The compounds of the present invention were covalently immobilized on epoxy group collated glass slides. Slides were rehydrated with dH2O and incubated for 30 min in a staining dish with 50° C. prewarmed ethanolamine (0.05 M) in Tris-HCl (0.1 M, pH 9.0) to block the remaining reactive epoxy groups on the slide surface, then washed with 50° C. prewarmed dH2O. Slides were centrifuged at 200 g for 3 min, then fitted with the ProPlate Multi-Array 16-well slide module (Grace Bio-lab P37001) to divide into the subarrays (blocks). Slides were washed with PBST (0.1% Tween 20), aspirated, and blocked with 200 μL/subarray of blocking buffer (PBS pH 7.3+1% w/v ovalbumin) for 1 h at RT with gentle shaking. Next, the blocking solution was aspirated and 100 μL/block of primary chemokines diluted in PBS pH 7.3+1% w/v ovalbumin were incubated with gentle shaking for 2 hours at RT. Slides were washed 4 times with PBST, then with PBS (without Tween-20) for 2 min. Bound antibodies were detected by incubating with biotinylated secondary detections (1 ng/μL) diluted in PBS, 200 μL/block at RT for 1 h. Slides were washed 4 times with PBST, then with PBS (without Tween-20) for 2 min and biotinylated antibodies were detected with Cy3-SA ([…]). Slides were washed 4 times with PBST, then with PBS for 10 min followed by removal from the ProPlate Multi-Array slide module and immediately dipping in a staining dish with dH2O for 10 min with shaking. The slides were then centrifuged at 200 g for 3 min, and the dry slides immediately scanned. Binding was tested at three serial dilutions, then detected with the relevant biotinylated secondary antibody (1 μg/mL) followed by Cy3-strepavidin (1.5 μg/mL). Arrays were scanned and RFUs were calculated of chemokines binding to 100 μM glycans printed at four replicates. Rank binding of chemokines (each at three dilutions) to glycans printed at four replicates each was calculated and summarized in Table 1. For each binding assay per printed block, the maximum RFU was determined and set as 100% binding. Then, binding to all other glycans in the same block was ranked in comparison to the maximal binding, and average rank binding (and SEM) for each glycan across the three examined concentrations of each chemokine was calculated. This analysis allowed to compare the glycan-binding profiles of the different chemokines and dissect their binding preferences.
(§2) Table 1. Chemokine glycan microarray binding assay. Binding was tested at 3 serial dilutions, then detected with the relevant biotinylated secondary antibody (1 μg/ml) followed by Cy3-Strepavidin (1.5 μg/ml) (Table SX). Arrays were scanned, relative fluorescent units (RFU) obtained, and maximum RFU determined and set as 100% binding. Then rank binding (per printed glycan per concentration, per each chemokine dilution, per printed block) was determined. Since each glycans was printed at 2 concentration, 100% binding was set separately for each concentration. Then, binding to all the other glycans at the same concentration was ranked in comparison to the maximal binding, and the average rank binding and SEM for each glycan across the two glycan concentrations and three examined dilutions of each chemokine was calculated (n=6, 2 glycan concentrations across 3 chemokine dilutions). This analysis allowed to compare the glycan binding profiles of the different chemokines and dissect their binding preferences. The mean rank is shown as a heatmap of all the examined binding assays together (red highest, blue lowest and white 50th percentile of ranking).

[2] = molecular target: CCL2 (Homo sapiens, UniProt P13500)
CCL2, sequence (P13500 24-99, species assumed): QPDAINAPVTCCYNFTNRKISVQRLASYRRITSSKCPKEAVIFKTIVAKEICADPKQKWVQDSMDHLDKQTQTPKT
Method: as §1, §2

[3] = molecular target: T1, CCL21 (Homo sapiens, UniProt O00585)
T1 sequence (O00585 24-134): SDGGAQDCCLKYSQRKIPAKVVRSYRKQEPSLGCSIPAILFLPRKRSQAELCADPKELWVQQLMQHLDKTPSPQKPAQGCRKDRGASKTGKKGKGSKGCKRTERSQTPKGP
Method: as §1, §2

[4] = molecular target: T2, CCL28 (Homo sapiens, UniProt Q9NRJ3)
T2 sequence (Q9NRJ3 20-127): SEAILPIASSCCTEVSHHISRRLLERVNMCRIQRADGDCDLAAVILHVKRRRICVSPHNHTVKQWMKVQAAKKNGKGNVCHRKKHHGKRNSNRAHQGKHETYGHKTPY
Method: as §1, §2

[5] = molecular target: T3, CCL5 (Homo sapiens, UniProt P13501)
T3 sequence (P13501 24-91): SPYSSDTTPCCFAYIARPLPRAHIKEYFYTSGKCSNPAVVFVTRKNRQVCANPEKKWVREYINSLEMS
Method: as §1, §2

[6] = molecular target: CCL7 (Homo sapiens, UniProt P80098)
CCL7, sequence (P80098 24-99, species assumed): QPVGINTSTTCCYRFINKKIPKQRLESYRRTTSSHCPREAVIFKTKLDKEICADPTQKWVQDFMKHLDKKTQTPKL
Method: as §1, §2

[7] = molecular target: T4, CXCL10 (Homo sapiens, UniProt P02778)
T4 sequence (P02778 22-98): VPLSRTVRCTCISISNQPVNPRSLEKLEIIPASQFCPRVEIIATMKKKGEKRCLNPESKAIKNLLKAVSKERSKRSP
Method: as §1, §2

[8] = molecular target: CXCL12 (Homo sapiens, UniProt P48061)
CXCL12, sequence (P48061 22-93, species assumed): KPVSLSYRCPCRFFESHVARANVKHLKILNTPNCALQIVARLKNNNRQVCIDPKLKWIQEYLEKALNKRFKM
Method: as §1, §2

[9] = molecular target: T5, CXCL8 (Homo sapiens, UniProt P10145)
T5 sequence (P10145 21-99): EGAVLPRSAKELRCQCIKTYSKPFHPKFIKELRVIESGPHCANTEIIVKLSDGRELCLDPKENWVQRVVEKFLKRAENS
Method: as §1, §2

CCL13, sequence (Q99616 17-98, species assumed): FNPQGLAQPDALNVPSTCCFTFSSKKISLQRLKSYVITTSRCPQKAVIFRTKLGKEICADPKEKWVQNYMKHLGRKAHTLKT

Structure (SMILES) | mean rank binding to CCL13 [1] [%] | mean rank binding to CCL2 [2] [%] | mean rank binding to CCL21 [3] [%] | mean rank binding to CCL28 [4] [%] | mean rank binding to CCL5 [5] [%] | mean rank binding to CCL7 [6] [%] | mean rank binding to CXCL10 [7] [%] | mean rank binding to CXCL12 [8] [%] | mean rank binding to CXCL8 [9] [%]
CC(=O)NC1C(O)[C@H](O)C(CO)O[C@@H]1O[C@@H]1C(C(=O)O)O[C@@H](O[C@@H]2C(CO)O[C@H](O[C@@H]3C(C(=O)O)O[C@@H](OCCCN)C(O)C3O)C(NC(C)=O)C2O)C(O)C1O (stereo partly drawn) [Example 16, 3-Aminopropyl-O-[(2-acetamido-2-deoxy-α-D-glucopyranosyl)-(1→4)-O-(α-L-idopyranosyluronate)-(1→4)-O-(2-acetamido-2-deoxy-α-D-glucopyranosyl)]-(1→4)-O-α-L-idopyranosiduronate] | 24 | 0 | 27 | 22 | 1 | 2 | 14 | 16 | 3
NCCCO[C@@H]1O[C@@H](C(=O)O)[C@@H](O[C@H]2O[C@H](CO)[C@@H](O[C@@H]3O[C@@H](C(=O)O)[C@@H](O[C@H]4O[C@H](CO)[C@@H](O)[C@H](OS(=O)(=O)O)[C@H]4N)[C@H](O)[C@H]3OS(=O)(=O)O)[C@H](OS(=O)(=O)O)[C@H]2N)[C@H](O)[C@H]1OS(=O)(=O)O [Example 18, 3-Aminopropyl-O-[(2-amino-3-O-sulfonato-2-deoxy-α-D-glucopyranosyl)-(1→4)-O-(2-O-sulfonato-α-L-idopyranosyluronate)-(1→4)-O-(2-amino-3-O-sulfonato-2-deoxy-α-D-glucopyranosyl)]-(1→4)-O-2-O-sulfonato-α-L-idopyranosiduronate] | 64 | 1 | 48 | 66 | 4 | 35 | 27 | 45 | 9
CC(=O)NC1C(O)[C@H](O)C(COS(=O)(=O)O)O[C@@H]1O[C@@H]1C(C(=O)O)O[C@@H](O[C@@H]2C(COS(=O)(=O)O)O[C@H](O[C@@H]3C(C(=O)O)O[C@@H](OCCCN)C(OS(=O)(=O)O)C3O)C(NC(C)=O)C2O)C(OS(=O)(=O)O)C1O (stereo partly drawn) [Example 20, 3-Aminopropyl-O-[(2-acetamido-6-O-sulfonato-2-deoxy-α-D-glucopyranosyl)-(1→4)-O-(2-O-sulfonato-α-L-idopyranosyluronate)-(1→4)-O-(2-acetamido-6-O-sulfonato-2-deoxy-α-D-glucopyranosyl)]-(1→4)-O-2-O-sulfonato-α-L-idopyranosiduronate] | 79 | 30 | 71 | 66 | 54 | 86 | 64 | 69 | 53
CC(=O)N[C@H]1[C@@H](O[C@H]2[C@H](O)[C@@H](OP(=O)(O)O)[C@H](OCCCN)O[C@H]2C(=O)O)O[C@H](COP(=O)(O)O)[C@@H](O[C@@H]2O[C@@H](C(=O)O)[C@@H](O[C@H]3O[C@H](COP(=O)(O)O)[C@@H](O)[C@H](O)[C@H]3NC(C)=O)[C@H](O)[C@H]2OP(=O)(O)O)[C@@H]1O [Example 21, 3-Aminopropyl-O-[(2-acetamido-6-O-phosphonato-2-deoxy-α-D-glucopyranosyl)-(1→4)-O-(2-O-phosphonato-α-L-idopyranosyluronate)-(1→4)-O-(2-acetamido-6-O-phosphonato-2-deoxy-α-D-glucopyranosyl)]-(1→4)-O-2-O-phosphonato-α-L-idopyranosiduronate] | 87 | 2 | 78 | 78 | 14 | 56 | 55 | 59 | 29
NCCCO[C@@H]1O[C@@H](C(=O)O)[C@@H](O[C@H]2O[C@H](CO)[C@@H](O[C@@H]3O[C@@H](C(=O)O)[C@@H](O[C@H]4O[C@H](CO)[C@@H](O)[C@H](OS(=O)(=O)O)[C@H]4N)[C@H](O)[C@H]3O)[C@H](OS(=O)(=O)O)[C@H]2N)[C@H](O)[C@H]1O [Example 22, 3-Aminopropyl-O-[(2-amino-3-O-sulfonato-2-deoxy-α-D-glucopyranosyl)-(1→4)-O-(α-L-idopyranosyluronate)-(1→4)-O-(2-amino-3-O-sulfonato-2-deoxy-α-D-glucopyranosyl)]-(1→4)-O-α-L-idopyranosiduronate] | 58 | 28 | 83 | 62 | 20 | 78 | 65 | 84 | 51
NCCCO[C@@H]1OC(C(=O)O)[C@@H](O[C@H]2OC(COS(=O)(=O)O)[C@@H](O[C@@H]3OC(C(=O)O)[C@@H](O[C@H]4OC(COS(=O)(=O)O)[C@@H](O)[C@H](O)C4N)C(O)[C@@H]3O)[C@H](O)C2N)C(O)[C@@H]1O (stereo partly drawn) [Example 23, 3-Aminopropyl-O-[(2-amino-6-O-sulfonato-2-deoxy-α-D-glucopyranosyl)-(1→4)-O-(α-L-idopyranosyluronate)-(1→4)-O-(2-amino-6-O-sulfonato-2-deoxy-α-D-glucopyranosyl)]-(1→4)-O-α-L-idopyranosiduronate] | 45 | 1 | 25 | 38 | 3 | 11 | 15 | 25 | 5
CC(=O)NC1C(O)[C@H](O)C(COS(=O)(=O)O)O[C@@H]1O[C@@H]1C(C(=O)O)O[C@@H](O[C@@H]2C(COS(=O)(=O)O)O[C@H](O[C@@H]3C(C(=O)O)O[C@@H](OCCCN)C(O)C3O)C(NC(C)=O)C2O)C(O)C1O (stereo partly drawn) [Example 24, 3-Aminopropyl-O-[(2-acetamido-6-O-sulfonato-2-deoxy-α-D-glucopyranosyl)-(1→4)-O-(α-L-idopyranosyluronate)-(1→4)-O-(2-acetamido-6-O-sulfonato-2-deoxy-α-D-glucopyranosyl)]-(1→4)-O-α-L-idopyranosiduronate] | 81 | 13 | 79 | 79 | 24 | 73 | 41 | 66 | 19
